Assay results from US8450527B2, “Amine derivative compounds for treating ophthalmic diseases and disorders” (Acucela Inc., priority 2007, dated 2013).

How the values were obtained:
[1] = target: T1, visual cycle isomerase (Bos taurus, UniProt Q28175); experiment: In vitro isomerase inhibition assay, bovine RPE microsome membranes; type: biochemical; conditions: inhibition of 11-cis retinol formation; values given as ranges
T1 construct: Bovine Retinal Pigment Epithelium (RPE) microsome membranes were the source of a visual cycle isomerase; from tissue; host or cells: bovine retinal pigment epithelium microsome membranes; CRALBP made in E. coli
T1 sequence (Q28175 2-533 limits assumed): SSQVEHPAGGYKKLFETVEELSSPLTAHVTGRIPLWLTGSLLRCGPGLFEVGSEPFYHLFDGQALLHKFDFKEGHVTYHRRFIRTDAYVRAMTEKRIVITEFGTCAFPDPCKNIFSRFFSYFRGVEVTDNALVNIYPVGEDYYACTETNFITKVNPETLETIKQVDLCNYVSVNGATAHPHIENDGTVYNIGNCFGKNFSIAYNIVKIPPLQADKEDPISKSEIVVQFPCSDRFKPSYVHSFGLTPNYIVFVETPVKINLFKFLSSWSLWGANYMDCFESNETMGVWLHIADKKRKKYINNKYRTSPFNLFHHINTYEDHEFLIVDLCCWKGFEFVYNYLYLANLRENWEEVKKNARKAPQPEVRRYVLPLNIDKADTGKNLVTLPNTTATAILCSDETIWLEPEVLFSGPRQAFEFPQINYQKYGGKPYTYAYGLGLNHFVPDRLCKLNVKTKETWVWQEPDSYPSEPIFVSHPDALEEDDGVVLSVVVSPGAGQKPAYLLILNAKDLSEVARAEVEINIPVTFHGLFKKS
Method: The capability of amine derivative compounds to inhibit the activity of a visual cycle isomerase was determined
Isomerase inhibition reactions were performed essentially as described (Stecher et al., J. Biol. Chem. 274:8577-85 (1999); see also Golczak et al., Proc. Natl. Acad. Sci. USA 102:8162-67 (2005)). Bovine Retinal Pigment Epithelium (RPE) microsome membranes were the source of a visual cycle isomerase.
Bovine RPE microsome membrane extracts were prepared according to methods described (Golczak et al., Proc. Natl. Acad. Sci. USA 102:8162-67 (2005)) and stored at −80° C. Crude RPE microsome extracts were thawed in a 37° C. water bath, and then immediately placed on ice. 50 ml crude RPE microsomes were placed into a 50 ml Teflon-glass homogenizer (Fisher Scientific, catalog no. 0841416M) on ice, powered by a hand-held DeWalt drill, and homogenized ten times upand down on ice under maximum speed. This process was repeated until the crude RPE microsome solution was homogenized. The homogenate was then subjected to centrifugation (50.2 Ti rotor (Beckman, Fullerton, Calif.), 13,000 RPM; 15360 Rcf) for 15 minutes at 4° C. The supernatant was collected and subjected to centrifugation at 42,000 RPM (160,000 Rcf; 50.2 Ti rotor) for 1 hour at 4° C. The supernatant was removed, and the pellets were suspended in 12 ml (final volume) cold 10 mM MOPS buffer, pH 7.0. The resuspended RPE membranes in 5 ml aliquots were homogenized in a glass-to-glass homogenizer (Fisher Scientific, catalog no.K885500-0021) to high homogeneity. Protein concentration was quantified using the BCA protein assay according to the manufacturer's protocol (Pierce, Rockford, Ill.). The homogenized RPE preparations were stored at −80° C.
Recombinant human apo cellular retinaldehyde-binding protein (CRALBP) was cloned and expressed according to standard methods in the molecular biology art (see Crabb et al., Protein Science 7:746-57 (1998); Crabb et al., J. Biol. Chem. 263:18688-92 (1988)). Briefly, total RNA was prepared from confluent ARPE^19 cells (American Type Culture Collection, Manassas, Va.), cDNA was synthesized using an oligo(dT)12-18 primer, and then DNA encoding CRALBP was amplified by two sequential polymerase chain reactions (see Crabb et al., J. Biol. Chem. 263:18688-92 (1988); Intres, et al., J. Biol. Chem. 269:25411-18 (1994); GenBank Accession No. L34219.1). The PCR product was sub-cloned into pTrcHis2-TOPO TA vector according to the manufacturer's protocol (Invitrogen Inc., Carlsbad, Calif.; catalog no. K4400-01), and then the sequence was confirmed according to standard nucleotide sequencing techniques. Recombinant 6×His-tagged human CRALBP was expressed in One Shot TOP 10 chemically competent E. coli cells (Invitrogen), and the recombinant polypeptide was isolated from E. coli cell lysates by nickel affinity chromatography using nickel (Ni) Sepharose XK16-20 columns for HPLC (Amersham Bioscience, Pittsburgh, Pa.; catalog no.17-5268-O2). The purified 6×His-tagged human CRALBP was dialyzed against 10 mM bis-tris-Propane (BTP) and analyzed by SDS-PAGE. The molecular weight of the recombinant human CRALBP was approximately 39 kDal.
Amine derivative compounds and control compounds were reconstituted in ethanol to 0.1 M. Ten-fold serial dilutions (10^−2, 10^−3, 10^−4, 10^−5, 10^−6 M) in ethanol of each compound were prepared for analysis in the isomerase assay.
The isomerase assay was performed in 10 mM bis-tris-propane (BTP) buffer, pH 7.5, 0.5% BSA (diluted in BTP buffer), 1 mM sodium pyrophosphate, 20 μM all-trans retinol (in ethanol), and 6 μM apo-CRALBP. The test compounds (2 μl) (final 1/15 dilution of serial dilution stocks) were added to the above reaction mixture to which RPE microsomes were added. The same volume of ethanol was added to the control reaction (absence of test compound). Bovine RPE microsomes (9 μl) (see above) were then added, and the mixtures transferred to 37° C. to initiate the reaction (total volume=150 μl). […]

[2] = test system: retinoid nuclear receptors (RAR and RxR); experiment: Retinoid nuclear receptor activity

Row | SMILES | IC50 [1] [µM] | effects on retinoid nuclear receptors (RAR and RxR) [2]
1 | CCCC(O)(CCC)CCc1cccc(CCCN)c1 [Example 3, 4-(3-(3-aminopropyl)phenethyl)heptan-4-ol] | ≤ 1 | 
2 | NCCCc1cccc(CCC2(O)CCCCC2)c1 [Example 7, 1-(3-(3-aminopropyl)phenethyl)cyclohexanol] | ≤ 1 | did not show significant effects
3 | CCCC(O)(CCC)CCc1cccc(OCCN)c1 [Example 9, 4-(3-(2-aminoethoxy)phenethyl)heptan-4-ol] | ≤ 1 | 
4 | NCCOc1cccc(CCC2(O)CCCCCC2)c1 [Example 10, 1-(3-(2-aminoethoxy)phenethyl)cycloheptanol] | ≤ 1 | 
5 | NCCOc1cccc(CCC2(O)CCSCC2)c1 [Example 11, 4-(3-(2-aminoethoxy)phenethyl)tetrahydro-2H-thiopyran-4-ol] | ≤ 1 | 
6 | NCCOc1cccc(CCC2(O)CCCCC2)c1 [Example 12, 1-(3-(2-aminoethoxy)phenethyl)cyclohexanol] | ≤ 1 | did not show significant effects
7 | NCCC(O)c1cccc(CCC2(O)CCCCC2)c1 (stereo not drawn) [Example 15, 1-(3-(3-amino-1-hydroxypropyl)phenethyl)cyclohexanol] | ≤ 1 | 
8 | NCCC(O)c1cccc(CCC2(O)CCCCCC2)c1 (stereo not drawn) [Example 16, 1-(3-(3-amino-1-hydroxypropyl)phenethyl)cycloheptanol] | ≤ 1 | did not show significant effects
9 | NCCC(O)c1cccc(CCC2CCCC2)c1 (stereo not drawn) [Example 17, 3-amino-1-(3-(2-cyclopentylethyl)phenyl)propan-1-ol] | ≤ 1 | 
10 | CCCC(O)(CCC)CCc1cccc(C(O)CCN)c1 (stereo not drawn) [Example 19, 4-(3-(3-amino-1-hydroxypropyl)phenethyl)heptan-4-ol] | ≤ 1 | 
11 | NCCCc1cccc(CCC2(O)CCCCCC2)c1 [Example 20, 1-(3-(3-aminopropyl)phenethyl)cycloheptanol] | ≤ 1 | did not show significant effects
12 | CCCCCc1cccc(CCCN)c1 [Example 27, 3-(3-pentylphenyl)propan-1-amine] | ≤ 1 | 
13 | CC(C)(C)CCc1cccc(CCCN)c1 [Example 29, 3-(3-(3,3-dimethylbutyl)phenyl)propan-1-amine] | ≤ 1 | 
14 | NCCCc1cccc(CCCCc2ccccc2)c1 [Example 35, 3-(3-(4-phenylbutyl)phenyl)propan-1-amine] | ≤ 1 | 
